Data reported in patent publication US20200061076A1, “METHODS OF TREATING LEUKODYSTROPHIES” (Ramot at Tel-Aviv University Ltd., priority 2017, published 2020).

Columns and labels:
[1] = system: Mut primary astrocytes; experiment: mtDNA quantification, primary astrocytes; assay type: cell-based, mouse; settings: 1 or 10 μm, 6 hours (FIG. 17A)
Procedure: (§1) Shown is average relative quantity (RQ) of 2-6 independent experiments normalized to their untreated controls ±SEM. […] Values of ATP-linked respiration (FIG. 17B) and maximal respiration (FIG. 17C) were analyzed and normalized to cell number.

[2] = system: Mut MEFs; experiment: TMRE staining, flow cytometry; assay type: cell-based, mouse; settings: 6 hours (FIGS. 5A-B)
Procedure: Mut MEFs were treated or untreated with the indicated concentrations of the indicated Sig-1R binders for 6 hours, stained by TMRE for 30 minutes and analyzed by flow cytometry. Shown are flow cytometry histograms and bar graphs representing % mean TMRE fluorescence intensity relative to non-treated WT cells of a representative experiment.
MEFs were seeded at a density of 4×10^4 cells per well in a 24-wells plate. 24 hours post-plating the cells were incubated with the tested compounds for additional 6 hours followed by staining with 200 nM Tetra-Methyl-Rhodamine-Ethyl esterperchlorate (TMRE) (Abcam) for 30 minutes at 37° C. Cells were removed by trypsinyzation, washed and resuspended in PBS. 5-10×10^3 cells were analyzed by Stratedigm S1000EXi cell sorter and FlowJo software (FLOWJO, LLC, Ashland, Oreg., USA).

[3] = system: Mut MEFs; experiment: mtDNA quantification (qPCR of mitochondrial 12S rRNA and nuclear 18S rRNA genes), MEFs; assay type: cell-based, mouse; settings: 6 hours incubation (FIG. 2)
Procedure: DNA extracted from WT and Mut MEFs that were treated or not for 6 hours with 0.1 μM, 1 μM or 10 μM of p8G5 (blue), Pre084 (known SIG-1R agonist, purple), pridopidine (known SIG-1R agonists, green) or NE-100 (known SIG-1R antagonist, yellow) was subjected to qPCR analysis of mitochondrial 12S rRNA and nuclear 18S rRNA genes.

[4] = system: Mut astrocytes; experiment: Survival under Tunicamycin-induced ER stress, Crystal Violet, astrocytes; assay type: cell-based, mouse; settings: 30 μM, 50 ng/ml Tunicamycin last 22 hours (FIG. 19)
Procedure: WT and Mut astrocytes were treated or not for 24 hours with 20, 30 or 50 μM of the indicated Sig-1R binders in the presence of 50 ng/ml Tunicamycin (Tun) during the last 22 hours. Following, the cells were washed, fixated and stained with Crystal Violet (CV) followed by measurement of absorbance at 570 nm. Shown is % of CV staining relative to cells not treated with tunicamycin nor Sig-1R binder ±SEM of 3 independent experiments, *p<0.05.
(§2) Cells were seeded on 96-wells plate at a density of 5000 cells per well. Astrocytes were seeded following coating with 0.001% PDL.

[5] = system: Mut MEFs; experiment: Oxygen consumption (Seahorse XF Cell Mito Stress Test), MEFs; assay type: cell-based, mouse; settings: for maximal respiration rate per mitochondrial content: 1 μM, 6 hours (FIG. 8C); for basal and ATP-linked respiration rate per mitochondrial DNA content: 6 hours (FIGS. 8A-B)
Procedure: Mut MEFs were treated or not for 6 hours with the indicated concentrations of the indicated Sig-1R binders. Oxygen consumption was measured in a XF96 Extracellular Flux Analyzer using the Seahorse XF Cell Mito Stress Test Kit. The Basal respiration (FIG. 7A) and ATP-linked respiration (FIG. 7B) data were normalized to biomass as determined by Crystal Violet staining.
Mut MEFs were treated or not for 6 hours with the indicated concentrations of the indicated Sig-1R binders. Oxygen consumption was measured in a XF96 Extracellular Flux Analyzer using the Seahorse XF Cell Mito Stress Test Kit. The Basal respiration (FIG. 8A), ATP-linked respiration (FIG. 8B) and maximal respiration (FIG. 8C) data was normalized to mtDNA content as detailed in FIG. 2.
(§3) The data were normalized to cell number, obtained by Crystal Violet staining, or to mtDNA content.

[6] = system: Mut primary astrocytes; experiment: Oxygen consumption (OCR), primary astrocytes; assay type: cell-based, mouse; settings: 1 or 10 μm, 6 hours, normalized to cell number (FIGS. 17B-C)
Procedure: as §1, §3

[7] = system: primary OPC; experiment: OPC differentiation assay (IncuCyte); assay type: cell-based, mouse; settings: 1 μM, 60 hours in differentiation medium (FIG. 13)
Procedure: Images were taken every 10 hours followed by analysis using IncuCyte ZOOM software (2016B).
5,000 cells OPCs per well were seeded in a 96 wells plate and maintained overnight in proliferation media (Emery et al. 2013). […] OPC differentiation was monitored by continuous imaging. Images taken at ten hours intervals were analyzed by IncuCyte NeuroTrack software for the following parameters: Neurite length, Neurite branch points, Cell body clusters and Cell body cluster area. Statistics—For all comparisons, Student's t-test was performed using ≥3 independent biological repeats for each group (methodological selection of sample size was not applied).

[8] = system: Mut MEFs; experiment: Cell survival assay, Crystal violet staining, Mut MEFs; assay type: cell-based, mouse; settings: for Survival (%) ± SEM Mut MEFs: 24 hours, untreated cells set to 100%
Procedure: as §2

[9] = system: Mut MEFs; experiment: JC1 staining of intact and damaged mitochondria (mitochondrial membrane potential); assay type: cell-based, mouse
Procedure: Mut MEFs were treated or not for 6 hours with the indicated concentrations of p8G5 (blue), pre084 (purple), or NE-100 (yellow), washed and stained with Hoechst and JC1 for 30 minutes followed by image acquisition using In-Cell-Analyzer-2000. Shown is the % of red/green JC1 integrated intensity per cell relative to that in untreated WT cells of 2-4 independent experiments.
Following, the cells were washed, stained with Hoechst and JC-1 fluorescent dyes for 30 minutes, and subjected to image acquisition using In-Cell-Analyzer-2000. Shown is cellular content of damaged mitochondria (JC1 green channel, red bars), intact mitochondria (JC1 red channel, green bars) and damaged to intact mitochondria ratio (blue bars). Values of control (vehicle treated) cells was set to 100%.
Mut MEFs were treated with the indicated compounds at 10 μM for 24 hours followed by staining with fluorogenic dyes and image-based single-cell analysis. Shown is average effect on ROS level from at least 3-independent experiments ±SEM. […] Mut MEFs were incubated or not for 24 hours with 10 μM of the indicated compound, washed and stained with Crystal Violet. […] Mut MEFs were incubated or not for 24 hours with 10 μM of the indicated compound, washed and stained with JC1 and Hoechst followed by image-based single-cell analysis. Values of untreated cells were set as 100%. Shown is average of at least 3 independent experiments for each parameter compared to its matching control ±SEM. * p<0.05. Putative targets are indicated.
Mut MEFs were incubated or not for 24 hours with 10 μM of the indicated compounds, washed and stained with Hoechst and JC1 followed by image-based single-cell analysis. […] Mut MEFs were incubated or not with the indicated concentrations of the indicated compounds for 2 hours followed by addition of 50 ng/ml Tunicamycin (Tun) for additional 22 hours, stained with Crystal Violet followed by measurement of absorbance at 570 nm.
MEFs were seeded on 1% gelatin-coated 96-wells plate at a density of 5000 cells per well. 24 hours post-plating the cells were incubated with the tested compounds for additional 24 hours. Several DMSO-treated cells (control) were included in each plate at different locations. Following, the cells were stained by addition of fluorogenic dyes for further 30 minutes incubation at 37° C. […] CellROX was used together with Hoechst and CFSE; JC1 was used together with Hoechst. Cells were washed with Hank's balanced salt solution (HBSS) which was used for images acquisition using IN Cell Analyzer 2000 (GE Healthcare, Pitsburgh, Pa., USA). IN Cell Developer Toolbox 1.9.1 software (GE Healthcare) was used for analysis which included cells segmentation using Hoechst and/or CFSE signals. For analysis of JC1 staining, integrated intensity of green and red emissions were used for detection of damaged and intact mitochondria, respectively.

[10] = system: Mut astrocytes; experiment: Cell survival assay, Crystal violet staining, Mut astrocytes; assay type: cell-based, mouse; settings: 24 hours, untreated cells set to 100%
Procedure: as §2

[11] = system: Mut MEFs; experiment: Survival under Tunicamycin-induced ER stress, Crystal Violet, MEFs; settings: 30 μM, 24 hours, Tunicamycin during the last 22 hours (FIGS. 9 and 18)
Procedure: Mut MEFs were treated or not for 24 hours with the indicated concentrations of the indicated Sig-1R binders in the presence of 0.1 μg/ml Tunicamycin (Tun) during the last 22 hours. Following, the cells were washed, fixated and stained with Crystal Violet (CV) followed by measurement of absorbance at 570 nm. Shown is average % of CV staining relative to cells not treated with tunicamycin nor Sig-1R binder ±SEM of 3 independent experiments. *p<0.03.
Following, the cells were washed, fixated and stained with Crystal Violet and absorbance at 570 nm was measured. Data is presented relative to cells of the corresponding genotype not treated with p8G5 nor Tunicamycin. Shown is average % of CV staining ±SEM of 3 independent experiments.
Mut MEFs were treated or not for 24 hours with 10, 20 or 30 μM of the indicated Sig-1R binders in the presence of 50 ng/ml Tunicamycin (Tun) during the last 22 hours. Following, the cells were washed, fixated and stained with Crystal Violet (CV) followed by measurement of absorbance at 570 nm. Shown is % of CV staining relative to cells not treated with tunicamycin nor Sig-1R binder ±SEM of 3 independent experiments, *p<0.05.
Mut MEFs were incubated or not with the indicated concentrations of the indicated compounds for 2 hours followed by addition of 50 ng/ml Tunicamycin (Tun) for additional 22 hours, stained with Crystal Violet followed by measurement of absorbance at 570 nm. Shown is average normalized to Tun-treated cells without any compound ±SEM of 3 independent experiments. * not significant; ** p<0.02; *** all values p<0.04.

[12] = system: WT astrocytes; experiment: Cell survival assay, Crystal violet staining, WT astrocytes; assay type: cell-based, mouse; settings: 24 hours, untreated cells set to 100%
Procedure: as §2

[13] = Mutant MEFs, 1 μM, 24 hours (FIG. 12)

CCCN1CCC(c2cccc(S(C)(=O)=O)c2)CC1 [pridopidine, 4-(3-(Methylsulfonyl)phenyl)-1-propylpiperidine]
mitochondrial content per cell in astrocytes [1]: no effect on mitochondrial content per cell
TMRE staining (mitochondrial membrane potential) ([2]; 10 μM): increased TMRE staining to a level above that of untreated WT cells
mitochondrial content in Mut MEFs ([3]; 1 μM-10 μM): lowered the abnormal high mitochondrial content
survival rate of Mut astrocytes under ER-stress conditions [4]: increased the survival rate
maximal respiration rate per mitochondrial content [5]: increased the maximal respiration capacity per mitochondria to the level of untreated WT cells
basal and ATP-linked respiration rate per mitochondrial DNA content [5]: beneficial effect
ATP-linked and maximal respiration in mutant astrocytes [6]: increased both ATP-linked and maximal respiration

CC1=C2C[C@H]3[C@@H](CC=C4C[C@@H](O)CC[C@@]43C)[C@@H]2CC[C@]12O[C@@H]1C[C@H](C)CN[C@H]1[C@H]2C [Cyclopamine, reference compound]
neurite length, neurite branch points, cell body clusters and cell body cluster area [7]: positive effect
Survival (%) ± SEM Mut MEFs ([8]; 0.1 μM): 92 ± 2.5%
Survival (%) ± SEM Mut MEFs ([8]; 1 μM): 95 ± 4.1%
Survival (%) ± SEM Mut MEFs ([8]; 10 μM): 79 ± 1.4%
content of damaged mitochondria (JC1 green channel) [9, 13]: decreased content of damaged mitochondria
content of intact mitochondria (JC1 red channel) [9, 13]: increased content of intact mitochondria

O=C(OCCN1CCOCC1)C1(c2ccccc2)CCCCC1 [pre084, 2-morpholin-4-ylethyl 1-phenylcyclohexane-1-carboxylate]
mitochondrial content per cell in astrocytes [1]: no effect on mitochondrial content per cell
Survival (%) ± SEM Mut astrocytes ([10]; 1 μM): 97 ± 0.5%
Survival (%) ± SEM Mut astrocytes ([10]; 10 μM): 93 ± 5.1%
Survival (%) ± SEM Mut astrocytes ([10]; 30 μM): 76 ± 4.9%
TMRE staining (mitochondrial membrane potential) ([2]; 1 μM): increased TMRE staining to a level above that of untreated WT cells
mitochondrial content in Mut MEFs ([3]; 0.1 μM-1 μM): lowered the abnormal high mitochondrial content
Survival (%) ± SEM Mut MEFs ([8]; 0.1 μM): 100 ± 2.1%
Survival (%) ± SEM Mut MEFs ([8]; 1 μM): 101 ± 3.5%
Survival (%) ± SEM Mut MEFs ([8]; 10 μM): 99 ± 1.5%
Survival (%) ± SEM Mut MEFs ([8]; 20 μM): 97 ± 2.1%
Survival (%) ± SEM Mut MEFs ([8]; 30 μM): 105 ± 1.9%
Survival (%) ± SEM Mut MEFs ([8]; 50 μM): 80 ± 2.8%
Survival (%) ± SEM Mut MEFs ([8]; 100 μM): 57 ± 2.2%
effect on survival of Mut cells ([8]; as high as 30 μM (FIG. 4, Table 3)): did not have any negative effect on the survival
survival of Mut MEFs under Tunicamycin ER-stress [11]: able to rescue mutant MEFs
red/green JC1 signal (mitochondria with high to low membrane potential) ([9]; Mut MEFs, 1 μM and 10 μM, 6 hours (FIG. 6)): increased the ratio between the content of mitochondria with high to low membrane potential
Survival (%) ± SEM WT astrocytes ([12]; 1 μM): 114 ± 7.9%
Survival (%) ± SEM WT astrocytes ([12]; 10 μM): 95 ± 2.3%
Survival (%) ± SEM WT astrocytes ([12]; 30 μM): 82 ± 1.9%
maximal respiration rate per mitochondrial content [5]: increased the maximal respiration capacity per mitochondria to the level of untreated WT cells
basal and ATP-linked respiration rate per mitochondrial DNA content [5]: statistically significant increase
basal respiration and ATP-linked respiration per cell (OCR) ([5]; 6 hours, normalized to biomass (FIGS. 7A-B)): no effect
ATP-linked and maximal respiration in mutant astrocytes [6]: increased both ATP-linked and maximal respiration
